Data on 16 molecules can be found in patent US20080200454A1, “CARBON-LINKED TETRAHYDRO-PYRAZOLO-PYRIDINE MODULATORS OF CATHEPSIN S” (priority 2007, published 2008).

The target in the assay is Recombinant human cathepsin S (CatS) (Homo sapiens, UniProt P25774). Description: Recombinant human cathepsin S (CatS) inhibition assay, fluorogenic substrate Z-Valine-Valine-Arginine-AMC.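 Further: Baculovirus-expressed CatS in pH 5.0 sodium acetate buffer with DTT and NaCl, fluorescence read each minute over 20 min, inhibition derived from rate slope.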
Recombinant human cathepsin S (CatS), sequence (P25774 115-331): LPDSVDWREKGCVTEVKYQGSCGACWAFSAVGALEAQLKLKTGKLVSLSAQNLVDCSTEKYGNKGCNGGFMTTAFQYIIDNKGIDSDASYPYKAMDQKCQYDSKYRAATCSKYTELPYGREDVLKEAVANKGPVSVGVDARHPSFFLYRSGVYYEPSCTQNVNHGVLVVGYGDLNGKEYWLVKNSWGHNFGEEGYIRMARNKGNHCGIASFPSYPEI

pIC50: −log10 of the molar value. Where two headings read alike, the source gives them in different places.

For `CS(=O)(=O)N1CCc2c(c(-c3ccc(Cl)c(C#Cc4cncc(CNCc5ccccc5)c4)c3)nn2CCCN2CCOCC2)C1` [Example 427, 1-[5-({2-Chloro-5-[5-(methylsulfonyl)-1-(3-morpholin-4-ylpropyl)-4,5,6,7-tetrahydro-1H-pyrazolo[4,3-c]pyridin-3-yl]phenyl}ethynyl)pyridin-3-yl]-N-(phenylmethyl)methanamine], the pIC50 is 5.70.

Consider `CN(Cc1ccccc1)Cc1ccc(C#Cc2cc(-c3nn(CCCN4CCOCC4)c4c3CN(S(C)(=O)=O)CC4)ccc2Cl)cc1` [Example 77, Benzyl-(4-{2-chloro-5-[5-methanesulfonyl-1-(3-morpholin-4-yl-propyl)-4,5,6,7-tetrahydro-1H-pyrazolo[4,3-c]pyridin-3-yl]-phenylethynyl}-benzyl)-methyl-amine], for which the pIC50 was 6.19.

For `C[C@H]1COCCN1CCCn1nc(-c2ccc(Cl)c(C#Cc3ccc4c(c3)CCN(C)C4)c2)c2c1CCN(S(C)(=O)=O)C2` [Example 519, 6-({2-Chloro-5-[1-{3-[(3S)-3-methylmorpholin-4-yl]propyl}-5-(methylsulfonyl)-4,5,6,7-tetrahydro-1H-pyrazolo[4,3-c]pyridin-3-yl]phenyl}ethynyl)-2-methyl-1,2,3,4-tetrahydroisoquinoline], the pIC50 (CatS IC50) was 6.40.

In the case of `C[C@H]1COCCN1CCCn1nc(-c2ccc(Cl)c(C#Cc3ccc(CNCc4ccsc4)cc3)c2)c2c1CCN(S(C)(=O)=O)C2` [Example 434, 1-[4-({2-Chloro-5-[1-{3-[(3S)-3-methylmorpholin-4-yl]propyl}-5-(methylsulfonyl)-4,5,6,7-tetrahydro-1H-pyrazolo[4,3-c]pyridin-3-yl]phenyl}ethynyl)phenyl]-N-(3-thienylmethyl)methanamine], the pIC50 (CatS IC50) was 6.70.

Turning to `CS(=O)(=O)N1CCc2c(c(-c3ccc(Cl)c(C#Cc4ccc(Cl)cc4)c3)nn2CC(O)CN2CCC3(CCNC3=O)CC2)C1` (stereo not shown) [Example 298, 8-{3-[3-{4-Chloro-3-[(4-chlorophenyl)ethynyl]phenyl}-5-(methylsulfonyl)-4,5,6,7-tetrahydro-1H-pyrazolo[4,3-c]pyridin-1-yl]-2-hydroxypropyl}-2,8-diazaspiro[4.5]decan-1-one], the pIC50 was 7.30.

For `CC(C)(C)OC(=O)N1CCC(C2CCN(C[C@H](O)Cn3nc(-c4ccc(Cl)c(C#Cc5ccc(Cl)cc5)c4)c4c3CCN(C(N)=O)C4)CC2)CC1` [Example 237, 1,1-Dimethylethyl 1′-{(2S)-3-[5-(aminocarbonyl)-3-{4-chloro-3-[(4-chlorophenyl)ethynyl]phenyl}-4,5,6,7-tetrahydro-1H-pyrazolo[4,3-c]pyridin-1-yl]-2-hydroxypropyl}-4,4′-bipiperidine-1-carboxylate], the pIC50 was 8.00.

`NC(=O)C(=O)N1CCc2c(c(-c3ccc(Cl)c(C#Cc4ccc(Cl)c(CN[C@@H](CO)c5ccccc5)c4)c3)nn2CCCN2CCSCC2)C1` [Example 563, 2-[3-(4-Chloro-3-{[4-chloro-3-({[(1R)-2-hydroxy-1-phenylethyl]amino}methyl)phenyl]ethynyl}phenyl)-1-(3-thiomorpholin-4-ylpropyl)-1,4,6,7-tetrahydro-5H-pyrazolo[4,3-c]pyridin-5-yl]-2-oxoacetamide]: the pIC50 is 7.52.

Take `CS(=O)(=O)N1CCc2c(c(-c3ccc(C(F)(F)F)c(C#Cc4ccc(Cl)cc4)c3)nn2CC(O)CN2CCC(N3CCCC3=O)CC2)C1` (stereo not shown) [Example 116, 1-[1-(3-{3-[3-(4-Chloro-phenylethynyl)-4-trifluoromethyl-phenyl]-5-methanesulfonyl-4,5,6,7-tetrahydro-pyrazolo[4,3-c]pyridin-1-yl}-2-hydroxy-propyl)-piperidin-4-yl]-pyrrolidin-2-one]: the pIC50 is 7.40.

As for `CCCNCc1cc(C#Cc2cc(-c3nn(CCCN4CCOC[C@@H]4C)c4c3CN(C(=O)C(N)=O)CC4)ccc2Cl)ccc1Cl` [Example 270, (S)-2-{3-[4-Chloro-3-(4-chloro-3-propylaminomethyl-phenylethynyl)-phenyl]-1-[3-(3-methyl-morpholin-4-yl)-propyl]-1,4,6,7-tetrahydro-pyrazolo[4,3-c]pyridin-5-yl}-2-oxo-acetamide], under “CatS IC50”, the pIC50 was 7.70.

With `C[C@H]1COCCN1CCCn1nc(-c2ccc(Cl)c(C#Cc3ccc4c(c3)CN(C3CC3)CC4)c2)c2c1CCNC2` [Example 481, 7-{[2-Chloro-5-(1-{3-[(3S)-3-methylmorpholin-4-yl]propyl}-4,5,6,7-tetrahydro-1H-pyrazolo[4,3-c]pyridin-3-yl)phenyl]ethynyl}-2-cyclopropyl-1,2,3,4-tetrahydroisoquinoline], the pIC50 was 5.45.

With `CS(=O)(=O)N1CCc2c(c(-c3ccc(Cl)c(C#Cc4ccc(CC#N)cc4)c3)nn2CCCN2CCOCC2)C1` [Example 3, (4-{2-Chloro-5-[5-methanesulfonyl-1-(3-morpholin-4-yl-propyl)-4,5,6,7-tetrahydro-1H-pyrazolo[4,3-c]pyridin-3-yl]-phenylethynyl}-phenyl)-acetonitrile], the pIC50 is 6.57.

On to `CS(=O)(=O)N1CCc2c(c(-c3ccc(Cl)c(CCCN4CCOCC4)c3)nn2CCCN2CCC(N3CCCC3=O)CC2)C1` [Example 105, 1-[1-(3-{3-[4-Chloro-3-(3-morpholin-4-yl-propyl)-phenyl]-5-methanesulfonyl-4,5,6,7-tetrahydro-pyrazolo[4,3-c]pyridin-1-yl}-propyl)-piperidin-4-yl]-pyrrolidin-2-one], for which the pIC50 is 5.84.

For `CN(C)CCCCc1cc(-c2nn(CCCN3CCC(N4CCCC4=O)CC3)c3c2CN(S(C)(=O)=O)CC3)ccc1Cl` [Example 312, 1-(1-{3-[3-{4-Chloro-3-[4-(dimethylamino)butyl]phenyl}-5-(methylsulfonyl)-4,5,6,7-tetrahydro-1H-pyrazolo[4,3-c]pyridin-1-yl]propyl}piperidin-4-yl)pyrrolidin-2-one], the pIC50 is 5.25.

Consider `CN(C)Cc1cc(C#Cc2cc(-c3nn(CCCN4CCSCC4)c4c3CN(C(N)=O)CC4)ccc2Cl)ccc1Cl` [Example 615, 3-[4-Chloro-3-({4-chloro-3-[(dimethylamino)methyl]phenyl}ethynyl)phenyl]-1-(3-thiomorpholin-4-ylpropyl)-1,4,6,7-tetrahydro-5H-pyrazolo[4,3-c]pyridine-5-carboxamide], for which, under “CatS IC50”, the pIC50 was 7.52.

As to `CS(=O)(=O)N1CCc2c(c(-c3ccc(Cl)c(C#Cc4cccc(CNCCc5ccccc5)c4)c3)nn2CCCN2CCOCC2)C1` [Example 504, N-{[3-({2-Chloro-5-[5-(methylsulfonyl)-1-(3-morpholin-4-ylpropyl)-4,5,6,7-tetrahydro-1H-pyrazolo[4,3-c]pyridin-3-yl]phenyl}ethynyl)phenyl]methyl}-2-phenylethanamine], the pIC50 (CatS IC50) is 6.55.

Turning to `CS(=O)(=O)N1CCc2c(c(-c3ccc(Cl)c(C#Cc4cccc(C=O)c4)c3)nn2CCCN2CCOCC2)C1` [Example 184, 3-({2-Chloro-5-[5-(methylsulfonyl)-1-(3-morpholin-4-ylpropyl)-4,5,6,7-tetrahydro-1H-pyrazolo[4,3-c]pyridin-3-yl]phenyl}ethynyl)benzaldehyde], the pIC50 (CatS IC50) was 6.49.
